Measured values published in US20050281848A1, “Oleaginous ointments comprising two solubilized bioactive agents for the treatment of psoriasis” (GALDERMA S.A., priority 2004, published 2005).

Legend:
Assay type in all cases: physicochemical
[1] = Chemical stability of the actives in Composition 2
Description: The compositions of the invention are found particularly effective in conserving satisfactory chemical stability of active principles which are sensitive to oxidation, to water and to aqueous media in general. The term “satisfactory chemical stability” refers to a composition which over a period of at least 3 months, respectively at ambient temperature and at 40° C.:
has an active principles content of at least 80%, in particular at least 90% and more particularly at least 95% of the initial weight content.

[2] = Stability of calcitriol in Miglyol 812 (HPLC assay against a reference); settings: for Calcitriol content, T0 taken as 100%: calcitriol 30 ppm in Miglyol 812, 0.4% BHT, under nitrogen
Description: The stability of calcitriol was evaluated in the following two oil solvents: Miglyol 812 and Cetiol SN. a) Stability of Calcitriol in Miglyol 812 (Caprylic and 20 Capric Triglycerides): A solution is prepared of calcitriol 30 ppm in qs 100% of Miglyol 812 in the presence of 0.4% of BHT (antioxidant), kept under nitrogen. The initial time (TO) is taken as 100%.

[3] = Stability of calcitriol in Cetiol SN (HPLC assay against a reference); settings: for Calcitriol content, T0 taken as 100%: calcitriol 30 ppm in Cetiol SN, 0.4% BHT, under nitrogen
Description: b) Stability of Calcitriol in Cetiol SN (Cetearyl Isononanoate): A solution is prepared of calcitriol 30 ppm in qs 100% of Cetiol SN in the presence of 0.4% of BHT and kept under nitrogen. The initial time (TO) is taken as 100%.

Row | Chemical stability: content of the active ([1]; T0, AT) | Chemical stability: content of the active ([1]; T15 d, 40° C.) | Chemical stability: content of the active ([1]; T15 d, AT) | Calcitriol content, T0 taken as 100% ([2]; +4° C., T2 weeks) | Calcitriol content, T0 taken as 100% ([2]; +4° C., T4 weeks) | Calcitriol content, T0 taken as 100% ([2]; +40° C., T2 weeks) | Calcitriol content, T0 taken as 100% ([2]; +40° C., T4 weeks) | Calcitriol content, T0 taken as 100% ([2]; ambient temperature, T2 weeks) | Calcitriol content, T0 taken as 100% ([2]; ambient temperature, T4 weeks) | Stability in solution ([2]; in caprylic/capric triglyceride, 1 month) | Calcitriol content, T0 taken as 100% ([3]; +4° C., T2 weeks) | Calcitriol content, T0 taken as 100% ([3]; +4° C., T4 weeks) | Calcitriol content, T0 taken as 100% ([3]; +40° C., T2 weeks) | Calcitriol content, T0 taken as 100% ([3]; +40° C., T4 weeks) | Calcitriol content, T0 taken as 100% ([3]; AT, T2 weeks) | Calcitriol content, T0 taken as 100% ([3]; AT, T4 weeks) | Stability in solution ([3]; in cetearyl isononanoate, 1 month) | SMILES
1 | PROPIONATE: 97.3% | PROPIONATE: 92.3 | PROPIONATE: 95.2 |  |  |  |  |  |  |  |  |  |  |  |  |  |  | CCC(=O)O[C@]1(C(=O)CCl)[C@@H](C)C[C@H]2[C@@H]3CCC4=CC(=O)C=C[C@]4(C)[C@@]3(F)[C@@H](O)C[C@@]21C [CLOBETASOL PROPIONATE, clobetasol 17-propionate]
2 | CALCITRIOL: 97.6% | CALCITRIOL: 86.8 | CALCITRIOL: 95.1 | 98.2% | 105.2% | 93.1% | 95.0% | 95.8% | 98.0% | stable | 103.7% | 97.9% | 99.4% | 98.1% | 99.6% | 98.7% | stable | C=C1/C(=C\C=C2/CCC[C@]3(C)[C@@H]([C@H](C)CCCC(C)(C)O)CC[C@@H]23)C[C@@H](O)C[C@@H]1O [calcitriol]
